Test results from US12534456B2, “Heterocyclyl pyridines as novel fungicides” (Bayer Aktiengesellschaft, priority 2020, dated 2026).

assay: physchem; assay type: physicochemical; details: not given
Protocol: Measurement of Log P values as provided herein was performed according to EEC directive 79/831 Annex V.A8 by HPLC (High Performance Liquid Chromatography) on reversed phase columns with the following methods: • ^[a]
If more than one Log P value is available within the same method, all the values are given and separated by “+”.
Lambda-max-values were determined using UV-spectra from 200 nm to 400 nm and the peak values of the chromatographic signals

| SMILES | LogP |
| --- | --- |
| CSc1c(Cl)ncc(Oc2cccc(C(F)(F)F)c2)c1C1=NOCC(Cc2ccc(C)cc2C)N1 (racemic) [Compound I-121] | 4.67^[a] |
| O=C(O)c1c(Oc2cccc(C(F)(F)F)c2)cnc(Cl)c1F [Compound 1-01] | 2.28^[a] |
| Cc1ccc(CC2CON=C(c3cc(Cl)ncc3Oc3cccc(S(C)(=O)=O)c3)N2)c(C)c1 (racemic) [Compound I-095] | 3.25^[a] |
| Fc1c(Cl)cccc1Oc1cnc(Cl)cc1C1=NOCC(Cc2ccc(Cl)cc2Cl)N1 (racemic) [Compound I-102] | 4.71^[a] |
| Cc1ccc(CC(CCN)NC(=O)c2cc(Cl)ncc2Oc2cccc(C(F)(F)F)c2)c(C)c1 (centres unmarked) [4-13] | 2.41^[a] |
| C=Cc1ccc(CC2CON=C(c3cc(Cl)ncc3Oc3cccc(C(F)F)c3)N2)c(Cl)c1 (racemic) [Compound I-040] | 4.29^[a] |
| Clc1ccc(CC2CON=C(c3cc(Cl)ncc3Oc3ccc4c(c3)CCO4)N2)c(Cl)c1 (centres unmarked) [Compound I-130] | 4.30^[a] |
| Cc1ccc(CC2CON=C(c3cc(Cl)ncc3Oc3cccc(Cl)c3F)N2)c(C)c1 (centres unmarked) [Compound I-144] | 4.59^[a] |
| Cc1ccc(CC2CNN=C(c3cc(Cl)ncc3Oc3cccc(C(F)(F)F)c3)N2)c(C)c1 (racemic) [Compound I-084] | 2.86^[a] |
| Cc1ccc(C2CON=C(c3cc(Cl)ncc3Oc3cccc(C(F)(F)F)c3)N2)cc1C (racemic) [Compound I-049] | 4.24^[a] |
| COc1cccc(Oc2cnc(Cl)cc2C(=O)NC(CON2C(=O)c3ccccc3C2=O)Cc2ccc(C)cc2C)c1 (centres unmarked) [3-09] | 4.80^[a] |
| C=CC(C)Nc1c(Cl)ncc(Oc2cccc(C(F)(F)F)c2)c1C1=NOCC(Cc2ccc(C)cc2C)N1 (centres unmarked) [Compound I-131] | 5.19^[a] |
| FC(F)(F)c1cccc(Oc2cnc(Cl)cc2C2=NOCC(c3ccc4c(c3)CCO4)N2)c1 (racemic) [Compound I-044] | 3.57^[a] |
| Cc1ccc(CC2CON=C(c3cc(Cl)ncc3Oc3ccccc3)N2)c(C)c1 (racemic) [Compound I-063] | 4.17^[a] |
| Cc1ccc(CC2CON=C(c3cc(Cl)ncc3Oc3cccc(C4CC4)c3)N2)c(C)c1 (racemic) [Compound I-013] | 4.89^[a] |
| Cc1ccc(CC2CN(C=O)N=C(c3cc(Cl)ncc3Oc3cccc(C(F)(F)F)c3)N2)c(C)c1 (racemic) [Compound I-094] | 4.49^[a] |
| FC(F)(F)c1cccc(Oc2cnc(Cl)cc2C2=NOCC(Cc3ccc(C(F)(F)F)cc3Cl)N2)c1 (racemic) [Compound I-105] | 4.84^[a] |
| FC(F)(F)c1cccc(Oc2cnc(Cl)cc2C2=NOCC(c3ccc4c(c3)CCC4)N2)c1 (racemic) [Compound I-054] | 4.41^[a] |
| Cc1ccc(CC2CON=C(c3cc(Cl)ncc3Oc3ccc(OC(F)(F)F)cc3)N2)c(C)c1 (racemic) [Compound I-120] | 4.76^[a] |
| FC(F)(F)c1cccc(Oc2cnc(Cl)cc2C2=NOCC(Cc3csc(Cl)c3)N2)c1 (centres unmarked) [Compound I-138] | 4.38^[a] |
| FC(F)(F)Oc1ccc(C2CON=C(c3cc(Cl)ncc3Oc3cccc(C(F)(F)F)c3)N2)cc1 (racemic) [Compound I-055] | 4.26^[a] |
| N#Cc1ccc(C2CON=C(c3cc(Cl)ncc3Oc3cccc(C(F)(F)F)c3)N2)cc1 (racemic) [Compound I-080] | 3.30^[a] |
| Cc1ccc(CC2CON=C(c3cc(Cl)ncc3Oc3ccc4c(c3)CCC4)N2)c(C)c1 (racemic) [Compound I-100] | 5.16^[a] |
| COc1cccc(Oc2cnc(C)cc2C2=NOCC(Cc3ccc(C)cc3C)N2)c1 (racemic) [Compound I-009] | 3.29^[a] |

same assay, conditions: Table 3, compounds of formula (1); method [a]: LC-UV, acidic range, 0.1% formic acid in water and acetonitrile

| SMILES | chromatographic logP |
| --- | --- |
| COC(=O)c1cc(Cl)ncc1Oc1cccc(C(F)(F)F)c1 [Compound 1-07, methyl 2-chloro-5-[3-(trifluoromethyl)phenoxy]isonicotinate] | 3.84 |

same assay, conditions: Table 13, compounds of formula (7); method [a]

| SMILES | chromatographic logP |
| --- | --- |
| Cc1ccc(CC2CON=C(c3ccncc3Br)N2)cc1 (racemic) [Compound 7-02, (5RS)-3-(3-bromopyridin-4-yl)-5-(4-methylbenzyl)-5,6-dihydro-4H-1,2,4-oxadiazine] | 2.31 |
